How the values were obtained:
CDK2/Cyclin E1 = CDK2/Cyclin E1 (Homo sapiens (Human), UniProt P24941); assay: biochemical; conditions: CDK2_Ki (nM), phosphorylated CDK2/Cyclin E1, 150 μM ATP, Morrison tight-binding fit
Procedure: The assay was initiated with the addition of ATP, following a fifteen minutes pre-incubation of enzyme and inhibitor at room temperature in the reaction mixture. The reaction was stopped after 45 minutes at room temperature by the addition of 50 μL of 80 mM EDTA, pH 7.5.

CDK6/Cyclin D1 = CDK6/Cyclin D1 (Homo sapiens (Human), UniProt Q00534); assay: biochemical; conditions: CDK6_Ki (nM), non-phosphorylated CDK6/Cyclin D1, 2 mM ATP, Morrison fit
Chain of CDK6/Cyclin D1 (Q00534 whole entry): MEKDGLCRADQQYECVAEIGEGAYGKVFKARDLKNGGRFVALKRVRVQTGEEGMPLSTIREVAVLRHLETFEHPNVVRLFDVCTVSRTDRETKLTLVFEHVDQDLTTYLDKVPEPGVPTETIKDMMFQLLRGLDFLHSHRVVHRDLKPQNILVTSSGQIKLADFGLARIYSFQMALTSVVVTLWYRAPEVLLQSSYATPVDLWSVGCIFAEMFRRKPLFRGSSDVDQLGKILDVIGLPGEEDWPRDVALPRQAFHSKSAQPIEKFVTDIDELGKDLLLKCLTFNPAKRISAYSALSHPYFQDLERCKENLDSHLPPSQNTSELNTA
Chain of CDK6/Cyclin D1 (P24385 whole entry partner): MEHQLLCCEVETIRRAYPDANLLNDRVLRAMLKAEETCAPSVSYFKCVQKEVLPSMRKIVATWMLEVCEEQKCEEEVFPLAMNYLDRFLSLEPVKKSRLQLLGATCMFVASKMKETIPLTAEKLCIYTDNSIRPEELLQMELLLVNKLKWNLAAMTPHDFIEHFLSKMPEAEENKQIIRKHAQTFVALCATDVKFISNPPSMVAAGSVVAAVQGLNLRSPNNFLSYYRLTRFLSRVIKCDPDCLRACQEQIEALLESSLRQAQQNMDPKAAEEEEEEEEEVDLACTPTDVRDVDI

Ki (CDK2/Cyclin E1) [nM]	Ki (CDK6/Cyclin D1) [nM]	SMILES
9.91	184	Cc1cc2cnc(NC3CCN(S(=O)(=O)C4CCS(=O)(=O)C4)CC3)nc2n([C@H]2CCC[C@]2(C)O)c1=O (single isomer, unassigned; isomer b) [Example 107, (+)-2-[(1-{[(3ξ)-1,1-dioxidotetrahydrothiophen-3-yl]sulfonyl}piperidin-4-yl)amino]-8-[(1R*,2R*)-2-hydroxy-2-methylcyclopentyl]-6-methylpyrido[2,3-d]pyrimidin-7(8H)-one-Isomer B]
2.47	11.8	Cc1cc2cnc(NC3CCN(S(=O)(=O)NC4CCOCC4)CC3)nc2n([C@H]2CCC[C@]2(C)O)c1=O (single isomer, unassigned) [Example 97, (+)-4-({8-[(1R*,2R*)-2-hydroxy-2-methylcyclopentyl]-6-methyl-7-oxo-7,8-dihydropyrido[2,3-d]pyrimidin-2-yl}amino)-N-(tetrahydro-2H-pyran-4-yl)piperidine-1-sulfonamide]
0.28	1.77	CNS(=O)(=O)N1CCC(Nc2ncc3ccc(=O)n([C@@H]4CCC[C@@]4(C)O)c3n2)CC1 (single isomer, unassigned) [Example 56, (−)-4-({8-[(1R*,2R*)-2-hydroxy-2-methylcyclopentyl]-7-oxo-7,8-dihydropyrido[2,3-d]pyrimidin-2-yl}amino)-N-methylpiperidine-1-sulfonamide]
4.48	22.2	C[C@]1(O)CCC[C@@H]1n1c(=O)ccc2cnc(NC3CCN(S(=O)(=O)NC4CCOCC4)CC3)nc21 (single isomer, unassigned) [Example 69, (+)-4-({8-[(1R*,2R*)-2-hydroxy-2-methylcyclopentyl]-7-oxo-7,8-dihydropyrido[2,3-d]pyrimidin-2-yl}amino)-N-(tetrahydro-2H-pyran-4-yl)piperidine-1-sulfonamide]
0.09	0.82	CNS(=O)(=O)N1CCC(Nc2ncc3ccc(=O)n([C@@H]4CCC[C@@H]4C)c3n2)CC1 [Example 44, N-methyl-4-({8-[(1R,2S)-2-methylcyclopentyl]-7-oxo-7,8-dihydropyrido[2,3-d]pyrimidin-2-yl}amino)piperidine-1-sulfonamide]
0.27	0.49	C[C@@]1(O)CCC[C@H]1n1c(=O)ccc2cnc(NC3CCN(S(=O)(=O)CF)CC3)nc21 (single isomer, unassigned) [Example 58, (−)-2-({1-[(fluoromethyl)sulfonyl]piperidin-4-yl}amino)-8-[(1R*,2R*)-2-hydroxy-2-methylcyclopentyl]pyrido[2,3-d]pyrimidin-7(8H)-one]
0.27	0.08	C[C@H]1CCC[C@H]1n1c(=O)c(CO)cc2cnc(NC3CCN(S(C)(=O)=O)CC3)nc21 [Example 50, 6-(hydroxymethyl)-8-[(1R,2S)-2-methylcyclopentyl]-2-{[1-(methylsulfonyl)piperidin-4-yl]amino}pyrido[2,3-d]pyrimidin-7(8H)-one]
4.18	0.26	CS(=O)(=O)N1CCC(Nc2ncc3cc(C(F)(F)F)c(=O)n(C4CCCC4)c3n2)CC1 [Example 148, 8-cyclopentyl-2-{[1-(methylsulfonyl)piperidin-4-yl]amino}-6-(trifluoromethyl)pyrido[2,3-d]pyrimidin-7(8H)-one]
0.55	2	CS(=O)(=O)N1CCC(Nc2ncc3ccc(=O)n([C@H]4C[C@H](O)CC[C@@H]4F)c3n2)CC1 (single isomer, unassigned) [Example 217, (+)-8-[(1S*,2S*,5R*)-2-fluoro-5-hydroxycyclohexyl]-2-{[1-(methylsulfonyl)piperidin-4-yl]amino}pyrido[2,3-d]pyrimidin-7(8H)-one]
1.2	0.17	CS(=O)(=O)N1CCC(Nc2ncc3cc(C(F)F)c(=O)n([C@@H]4CCC[C@@H](O)C4)c3n2)CC1 [Example 212, 6-(difluoromethyl)-8-[(1R,3R)-3-hydroxycyclohexyl]-2-{[1-(methylsulfonyl)piperidin-4-yl]amino}pyrido[2,3-d]pyrimidin-7(8H)-one]
0.13	0.36	C[C@@H]1[C@H](O)CCC[C@H]1n1c(=O)ccc2cnc(NC3CCN(S(C)(=O)=O)CC3)nc21 (single isomer, unassigned) [Example 221, (−)-8-[(1S*,2R*,3S*)-3-hydroxy-2-methylcyclohexyl]-2-{[1-(methylsulfonyl)piperidin-4-yl]amino}pyrido[2,3-d]pyrimidin-7(8H)-one]
6.03	1.82	CS(=O)(=O)N1CCC(Nc2ncc3cc(Cl)c(=O)n([C@@H]4CC[C@@H](O)C4)c3n2)CC1 (single isomer, unassigned) [Example 170, (−)-6-chloro-8-[(1R*,3R*)-3-hydroxycyclopentyl]-2-{[1-(methylsulfonyl)piperidin-4-yl]amino}pyrido[2,3-d]pyrimidin-7(8H)-one]
0.27	0.42	C[C@H]1CCC[C@H]1n1c(=O)c(Cl)cc2cnc(NC3CCN(S(C)(=O)=O)CC3)nc21 [Example 38, 6-chloro-8-[(1R,2S)-2-methylcyclopentyl]-2-{[1-(methylsulfonyl)piperidin-4-yl]amino}pyrido[2,3-d]pyrimidin-7(8H)-one]
26.9	31	Cc1cc2cnc(NC3CCN(S(C)(=O)=O)CC3)nc2n([C@H]2COC[C@]2(C)O)c1=O (single isomer, unassigned) [Example 198, (+)-8-[(3R*,4S*)-4-hydroxy-4-methyltetrahydrofuran-3-yl]-6-methyl-2-{[1-(methylsulfonyl)piperidin-4-yl]amino}pyrido[2,3-d]pyrimidin-7(8H)-one]
2.95	3.52	Cc1cc2cnc(NC3CCN(S(C)(=O)=O)CC3)nc2n([C@@H]2CCC[C@H]2O)c1=O [Example 173, 8-[(1R,2R)-2-hydroxycyclopentyl]-6-methyl-2-{[1-(methylsulfonyl)piperidin-4-yl]amino}pyrido[2,3-d]pyrimidin-7(8H)-one]
1.31	1.34	Cc1cc2cnc(NC3CCN(S(C)(=O)=O)CC3)nc2n([C@H]2CC[C@H](O)C2)c1=O (single isomer, unassigned) [Example 168, (+)-8-[(1R*,3R*)-3-hydroxycyclopentyl]-6-methyl-2-{[1-(methylsulfonyl)piperidin-4-yl]amino}pyrido[2,3-d]pyrimidin-7(8H)-one]
3.35	22.7	Cc1cc2cnc(NC3CCN(S(=O)(=O)NCC(C)(F)F)CC3)nc2n([C@H]2CCC[C@]2(C)O)c1=O (single isomer, unassigned) [Example 105, (+)-N-(2,2-difluoropropyl)-4-({8-[(1R*,2R*)-2-hydroxy-2-methylcyclopentyl]-6-methyl-7-oxo-7,8-dihydropyrido[2,3-d]pyrimidin-2-yl}amino)piperidine-1-sulfonamide]
20.9	10.1	C[C@@]1(O)CCC[C@H]1n1c(=O)c(Cl)cc2cnc(N[C@@H]3CCN(S(C)(=O)=O)C[C@@H]3F)nc21 (single isomer, unassigned) [Example 192, (+)-6-chloro-2-{[(3R*,4S*)-3-fluoro-1-(methylsulfonyl)piperidin-4-yl]amino}-8-[(1R,2R)-2-hydroxy-2-methylcyclopentyl]pyrido[2,3-d]pyrimidin-7(8H)-one]
2.88	14.3	COC(C)(C)CNS(=O)(=O)N1CCC(Nc2ncc3cc(C)c(=O)n([C@H]4CCC[C@]4(C)O)c3n2)CC1 (single isomer, unassigned) [Example 99, (+)-4-({8-[(1R*,2R*)-2-hydroxy-2-methylcyclopentyl]-6-methyl-7-oxo-7,8-dihydropyrido[2,3-d]pyrimidin-2-yl}amino)-N-(2-methoxy-2-methylpropyl)piperidine-1-sulfonamide]
1.98	8.29	Cn1cnc(S(=O)(=O)N2CCC(Nc3ncc4ccc(=O)n([C@H]5CCC[C@]5(C)O)c4n3)CC2)c1 (single isomer, unassigned) [Example 85, (+)-8-[(1R*,2R*)-2-hydroxy-2-methylcyclopentyl]-2-({1-[(1-methyl-1H-imidazol-4-yl)sulfonyl]piperidin-4-yl}amino)pyrido[2,3-d]pyrimidin-7(8H)-one]
0.25	1.63	C[C@@]1(O)CCC[C@H]1n1c(=O)ccc2cnc(NC3CCN(S(=O)(=O)c4nccs4)CC3)nc21 (single isomer, unassigned) [Example 78, (−)-8-[(1R*,2R*)-2-hydroxy-2-methylcyclopentyl]-2-{[1-(1,3-thiazol-2-ylsulfonyl)piperidin-4-yl]amino}pyrido[2,3-d]pyrimidin-7(8H)-one]
1.46	11.8	C[C@]1(O)CCC[C@@H]1n1c(=O)ccc2cnc(NC3CCN(S(N)(=O)=O)CC3)nc21 (single isomer, unassigned) [Example 184, (+)-4-({8-[(1R*,2R*)-2-hydroxy-2-methylcyclopentyl]-7-oxo-7,8-dihydropyrido[2,3-d]pyrimidin-2-yl}amino)piperidine-1-sulfonamide]
4.07	3.55	CS(=O)(=O)N1CC[C@H](Nc2ncc3cc(CC(N)=O)c(=O)n(C4CCCC4)c3n2)[C@@H](F)C1 (single isomer, unassigned) [Example 160, (−)-2-(8-cyclopentyl-2-{[(3S*,4S*)-3-fluoro-1-(methylsulfonyl)piperidin-4-yl]amino}-7-oxo-7,8-dihydropyrido[2,3-d]pyrimidin-6-yl)acetamide]

SMILES	Ki (CDK2/Cyclin E1) [nM]	Ki (CDK6/Cyclin D1) [nM]
C#CCCS(=O)(=O)N1CCC(Nc2ncc3cc(N)c(=O)n(C4CCCC4)c3n2)CC1 [Example 137, 6-amino-2-{[1-(but-3-yn-1-ylsulfonyl)piperidin-4-yl]amino}-8-cyclopentylpyrido[2,3-d]pyrimidin-7(8H)-one]	4.08	6.3
